From US7193044B1, “Compounds and methods for regulating apoptosis, and methods of making and screening for compounds that regulate apoptosis” (Immunogen, Inc., priority 2000, dated 2007)
“Also recorded” adds a separate entry of the source. Residues, ends and D or L forms follow the SMILES beside them. *: point of attachment. Cbz = O=C(OCc1ccccc1)*; CH2F = FC*

Assays:
[1] = system: BAD Ser155 phosphorylation in HeLa cells; assay: BAD phosphorylation in HeLa cells (western blot band-shift / anti-phospho-Ser155 antibody); format: cell-based, human
Protocol: A mammalian expression vector encoding mutant HA-BAD S155A, derived from the shorter murine BAD of SEQ ID NO:3, was constructed. HA-BAD S155A has an amino acid sequence wherein the serine at a position corresponding to Ser155 is substituted with alanine. A western blot was performed on WCL prepared from cells expressing the shorter murine BAD (SEQ ID NO:3), HA-BAD S112A, HA-BAD S136A, or HA-BAD S155A, and probed with anti-HA antibody.
A western blot analysis, probed with anti-HA antibody, was performed on lysates produced from the Forskolin treated and untreated (control) cells to determine whether Forskolin could induce the phosphorylation BAD or mutant BAD.
HeLa cells transiently expressing HA-BAD, HA-BAD S155A, HA-BAD S112A/S136A, or HA-BAD S112A/S136A/S155A were treated with Forskolin or a buffer control.
The HA-BAD S112A/S136A double mutant was transiently expressed in HeLa cells, and transfected cell cultures were treated with each of the GPCR ligands, individually and as a group. A western blot analysis, probed with anti-HA antibody, was performed on lysates produced from the treated and untreated (negative control) cells. […] Forskolin (FK) and no treatment (−) were positive and negative controls, respectively (FIG. 6(a), […], respectively).
Non-transfected HeLa cells were treated with Forskolin or L-epinephrine, followed by western blot analysis of cell lysates using anti-BAD antibodies.
Transformants were treated with L-epinephrine, then lysed and subjected to anti-HA western blot analysis.
(§1) To further test whether phosphorylation of Ser155 is dependent on the PI 3-kinase/Akt pathway, HeLa cells were transfected with the mutant HA-BAD S155A and pretreated with Wortmannin, an inhibitor of PI 3-kinase. These cells were then stimulated with epidermal growth factor (EGF), lysed and analyzed by western blot analysis.
For immunoprecipitation of all HA-BAD species, 1 μg of the anti-HA antibody was added to the cell lysates, and incubated at 4° C. for one hour. Protein G agarose (Pierce) was then added (50 μl/fraction of 50% slurry) and followed by a one hour incubation at 4° C. Beads were washed with RIPA buffer, boiled in loading buffer (2% SDS, 10% glycerol, 5% β-ME, 60 mM Tris, pH 6.8, 0.002% Bromophenol Blue) and loaded onto polyacrylamide gels. After electrophoresis, proteins were transferred to nitrocellulose membranes, and blots blocked in western wash buffer (40 mM Tris, pH 8.0, 150 mM NaCl, 0.2% NP-40) with 5% BSA for one hour at room temperature. Blots were incubated with primary antibody diluted in western wash buffer with 3% BSA at room temperature for 1–2 hours, washed with western wash buffer and incubated with secondary HRP-coupled antibody diluted in western wash buffer with 1.5% BSA, and washed extensively. Polypeptides were detected with the ECL chemiluminescence according to the manufacturers instructions (Amersham).

[2] = system: BAD phosphorylation in Rat-1 cells; assay: BAD phosphorylation in Rat-1 cells (western blot band-shift / anti-phospho-Ser155 antibody); format: cell-based
From the text: In the absence of a phospho-Ser155 antibody, it was difficult to conclude that this band-shift was solely the result of the phosphorylation of Ser155. However, it appeared that this response was at least primarily due to the phosphorylation at this site. This was based on the combined evidence, both in vitro and in cells, as described above (FIGS. 1, 2 and 4–7) and the fact that Ser155 is the only site of BAD homologous to the substrate consensus sequence of PKA.
Whether the BAD Ser155 kinase, PKA, is also activated by growth factors, and if so, whether such activation is PI 3-kinase dependent, was investigated. […] Cell lysates were analyzed via western blot analysis, probed using anti-HA antibody. […] However, the magnitude of phosphorylation was weaker and may be more transient, than the effect of Forskolin (FIG. 9(a)). Of note, Ser155 phosphorylation following IGF-1, EGF, or PDGF stimulation was not detected in HeLa cells (results not shown).
(§2) It has been documented that Akt kinase activity, the serine kinase shown to phosphorylate BAD Ser136, is induced by growth factors and is dependent on PI 3-kinase activation (Datta et al., 1997; del Peso et al., 1997). In related experiments, Rat-1 cells were pretreated with either the PKA inhibitor H89, or the PI 3-kinase inhibitor Wortmannin (available, e.g., from Sigma, St. Louis, Mo.), followed by stimulation with Forskolin (also available from Sigma) or PDGF. […] This indicated the shift was PKA dependent (FIG. 9(b), lower panel, compare lanes 5 and 6). […] It therefore presumably had no effect on PDGF-induced activation of PI 3-kinase.
To examine whether endogenous BAD is phosphorylated on Ser155 in response to growth factors, serum-starved Rat-1 fibroblasts were stimulated with PDGF. Whole cell lysates were prepared and endogenous BAD was immunoprecipitated. Proteins were separated by SDS-PAGE, and Ser155 phosphorylation was analyzed by Western blot using the phospho-S155 antibody and an anti-BAD antibody.

[3] = system: Akt; assay: Akt activation in Rat-1 cells (anti-phospho-S473 Akt western blot); format: cell-based; settings: pretreatment then PDGF
Protocol: FIG. 9(B) is two western blots. Rat-1 cells transiently expressing HA-BAD S112A/S136A were treated with a buffer control, H89 (PKA inhibitor) or Wortmannin (PI 3-kinase inhibitor), prior to stimulation with Forskolin or platelet-derived growth factor (“PDGF”). Whole cell lysates were then prepared and proteins were separated by SDS-PAGE. Blots were separately probed with an anti-phospho-S473 Akt antibody (the kinase that phosphorylates Ser136) (upper panel) and an anti-BAD antibody (lower panel).
as §2

[4] = system: Akt; assay: Akt activation in HeLa cells (anti-phospho-S473 Akt western blot); format: cell-based, human; settings: serum-starved HeLa cells, pretreatment then EGF
From the text: FIG. 10(B) is a series of western blots. Serum-starved HeLa cells expressing HA-BAD S155A, were pretreated with a buffer control (lanes 1 and 2), AG1478 (“AG”) (lane 3), Wortmannin (“Wm”) (lane 4), or H89 (lane 5). The cell cultures were then stimulated with a buffer control (lane 1) or EGF (lanes 2–5). Whole cell lysates were made from the cultures and the proteins were separated by SDS-PAGE. Blots were probed with either an anti-activated EGF receptor antibody (“activated EGFR”) (panel A), an anti-phospho-S473 Akt antibody (“pS473 Akt”) (panel B), or an anti-phospho-S155 BAD antibody (“pS155 BAD”) (panel D). Reblots were probed with either an anti-Akt antibody (“Akt”) (panel C) or an anti-HA BAD antibody (“HA-BAD”) (panel E).
as §1

[5] = system: HeLa cells; assay: Beta-gal ELISA apoptosis assay in transfected HeLa cells; format: cell-based, human; settings: transfected cells, data not shown
Protocol: Because BAD Ser155 phosphorylation, like Ser136 phosphorylation, prevents BAD from binding to Bcl-XL (FIG. 1), it was possible that by analogy, Ser155 dephosphorylation promotes cell death. To test this idea, HeLa cells were co-transfected with BAD or various BAD serine mutants and a β-gal reporter plasmid. Twenty-four hours post-transfection, cell viability was analyzed by β-gal ELISA.
To test this idea, HeLa cells were again co-transfected with BAD or various BAD serine mutants and a β-gal reporter plasmid. Forskolin was then added to half of the cultures while the other half was left untreated. Beta-gal ELISAs were performed 24 hours post transfection. […] Thus, phosphorylation of Ser155 rescues cells from BAD-induced apoptosis, while substitution of Ser155 with a nonphosphorylatable residue results in increased cell death and the failure of cells to be protected from induced PKA activity.
Beta-gal ELISA assays were performed using the β-gal ELISA system from Boehringer Mannheim, according to manufacture's instructions. Cells were transfected with BAD (or BAD mutant) and β-gal in a ratio of 5:1. The transfected cells were trypsinized and distributed into 96-well tissue culture plates. […] The β-gal activity was measured by the absorbance of the sample at […]. Data were based on triplicate wells with standard deviations calculated.

[6] = system: HeLa cells; assay: Fluorescence-based beta-galactosidase assay of BAD-induced cell death in transfected HeLa cells; design: species or system human
Protocol: FIG. 12(B) is a graphic representation of the results of a β-galactosidase assay. HeLa cells were co-transfected with the β-galactosidase gene and either HA-BAD (“WT”), HA-BAD S155A (“S155A”), HA-BAD S112A/S136A (“S112A/S136A”) or HA-BAD S112A/S136A/S155A (“AAA”). Transfected cells were then cultured in serum-free medium (SFM) or SFM supplemented with EGF (SFM+EGF) for 12 hours. Cell lysates were prepared and BAD-induced cell death was measured by the loss of β-galactosidase activity in a fluorescence-based assay. Fluorescence was measured at 465 nm. Results shown are the average and standard deviation of triplicate transfections (this experiment was repeated two more times with similar results). Expression levels of HA-tagged BAD and BAD mutants in transfected cell lysates were detected by anti-HA western blot analysis: HA-BAD (“WT”), HA-BAD S155A (“A”), HA-BAD S112A/S136A (“AA”), and HA-BAD S112A/S136A/S155A (“AAA”).
FIG. 12(C) is a graphic representation of the results of a β-galactosidase assay. HeLa cells were co-transfected with the β-galactosidase gene and either an empty vector (“CTL”), wild-type BAD (“WT”), the BAD S155A mutant (“S155A”) or the BAD S155D mutant (“S155D”). Cell lysates were prepared and BAD-induced cell death was measured by the loss of β-galactosidase activity in a fluorescence-based assay. Fluorescence was measured at 465 nm. […]

O=S(=O)(NCCNC/C=C/c1ccc(Br)cc1)c1cccc2cnccc12 [H89, reference compound]
inhibition of L-epinephrine-induced band-shift of endogenous BAD ([1]; HeLa cells): band-shift was sensitive to the PKA inhibitor, H89; also recorded: blocked L-epinephrine-induced BAD phosphorylation | basal phosphorylation of endogenous BAD ([1]; HeLa cells, treatment for one hour): reduced basal phosphorylation of endogenous BAD | inhibition of EGF-induced phosphorylation of BAD on Ser155 ([1]; serum-starved HeLa cells transfected with HA-BAD S155A (so in the source), pretreatment then EGF, anti-phospho-S155 blot): BAD Ser155 phosphorylation was prevented | inhibition of L-epinephrine-induced Ser155 phosphorylation of HA-BAD S112A/S136A ([1]; transfected HeLa cells): inhibitory effect of H89 | inhibition of Forskolin-induced BAD band-shift ([2]; Rat-1 cells): sensitive to the PKA inhibitor H89 | inhibition of PDGF-induced BAD band-shift/phosphorylation ([2]; Rat-1 cells, pretreatment then PDGF): significantly reduced | inhibition of PDGF-induced Ser155 phosphorylation of endogenous BAD ([2]; serum-starved Rat-1 cells, pretreatment): significantly reduced | effect on PDGF-induced Akt activation [3]: no effect on PDGF-induced Akt activation | effect on EGF-induced activation/phosphorylation of endogenous Akt [4]: without affecting the phosphorylation of Akt

CC(NC(=O)C(NC(=O)OCc1ccccc1)C(C)C)C(=O)NC(CC(=O)O)C(=O)CF (stereo not drawn) [z-VAD, reference compound] (Cbz-Val-Ala-Asp-CH2F; configuration not given here)
protection from BAD-induced apoptosis [5]: efficiently protected the cells | reversal of BAD-induced reduction of beta-gal activity [6]: reversed

EGF: epidermal growth factor
Ser155 phosphorylation following growth factor stimulation ([1]; HeLa cells, results not shown): not detected | induction of Ser155 phosphorylation of HA-BAD S112A/S136 ([1]; serum-starved transfected HeLa cells): stimulated the phosphorylation of BAD on Ser155 | induction of band-shift of HA-BAD S112A/S136A ([2]; transfected Rat-1 fibroblasts): induced a band-shift | suppression of pro-apoptotic function of BAD ([6]; serum-free medium plus EGF for 12 hours): suppressed the pro-apoptotic function of BAD
